# Measured values from patent US10555987B2, “GHRH agonists for the treatment of ischemic disorders” (UNIVERSITY OF MIAMI, priority 2012, dated 2020).
# Non-standard residues stand in square brackets, D forms with d. Residues, ends and D or L forms follow the SMILES beside them. *: point of attachment. Desaminotyrosyl = O=C(CCc1ccc(O)cc1)*; hArg = N=C(N)NCCCC[C@H](N)C(=O)O; Agmatine = N=C(N)NCCCCN*; Nle = CCCC[C@H](N)C(=O)O; Orn = NCCC[C@H](N)C(=O)O; dAbu = CC[C@@H](N)C(=O)O; Abu = CC[C@H](N)C(=O)O; Aoc = NCCCCCCCC(=O)O; GABA = NCCCC(=O)O
# Legend:
# GHRH receptor [1] = biological target: T1, GHRH receptor (Homo sapiens, UniProt Q02643); test: GHRH receptor binding, competition with 125I-labeled [His1,Nle27]hGHRH(1-32)NH2, human pituitary membrane homogenates (Table 6); set-up: Normal human pituitaries were purchased from the National Hormone and Peptide Program; tissue National Hormone and Peptide Program (A.F. Parlow, Harbor-UCLA Medical Center, Torrance, Calif.); host or cells: normal human pituitary, membrane fraction; conditions: for Relative affinity (Binding potency) vs GHRH: GHRH(1-29) = 1, Table 6; for Relative affinity (Binding potency) vs JI-38: JI-38 = 1, Table 6
# T1 sequence (Q02643 23-423): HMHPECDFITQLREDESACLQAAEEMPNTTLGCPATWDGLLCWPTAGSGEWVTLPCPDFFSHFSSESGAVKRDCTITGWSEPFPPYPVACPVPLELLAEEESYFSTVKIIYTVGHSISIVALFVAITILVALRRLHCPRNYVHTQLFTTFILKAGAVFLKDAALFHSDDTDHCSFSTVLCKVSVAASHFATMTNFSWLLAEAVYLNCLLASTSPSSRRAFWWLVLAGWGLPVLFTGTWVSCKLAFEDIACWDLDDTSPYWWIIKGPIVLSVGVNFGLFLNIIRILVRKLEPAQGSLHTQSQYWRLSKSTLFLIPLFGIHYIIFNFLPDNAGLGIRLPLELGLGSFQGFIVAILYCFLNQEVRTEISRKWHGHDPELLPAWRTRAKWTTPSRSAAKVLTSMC
# Description: (§1) Normal human pituitaries were purchased from the National Hormone and Peptide Program (A.F. Parlow, Los Angeles, County Harbor-UCLA Medical Center, Torrance, Calif.).
# GH release [2] = test: In vivo endocrine activity, GH release after intravenous administration (Table 8); conditions: rat, i.v. injection
# GH release [3] = test: In vivo endocrine activity, GH release after subcutaneous administration (Table 9); conditions: rat, subcutaneous (s.c.) injection
# Experimental: Subcutaneous Administration. Adult male rats were used and anesthetized with pentobarbital (6 mg/100 g, b.w.), by i.p. injection. […] Blood samples were taken from the jugular vein 5, 15 and/or 30 minutes after the injection. The blood samples were centrifuged, plasma was removed and the GH level was measured byELISA. The results are summarized in terms of potency in Table 9.
# GH release [4] = test: GH releasing potency in vivo, subcutaneous administration (Example 14, Table 12); set-up: species or system rat; conditions: s.c.
# In short: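 Potency is expressed relative to GHRH(1-29)NH2 and JI-38 (each = 1), via equivalent GHRH(1-29)NH2 dose read from a standard curve. Peptides in 5% mannitol given i.v. or s.c. to anaesthetised male Sprague-Dawley rats (200-250 g); serum GH measured by ELISA at selected times.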
# GH release [5] = test: GH releasing potency in vivo, intravenous administration (Example 14, Table 13); set-up: species or system rat; conditions: i.v.
# Experimental: Male Sprague-Dawley rats, weighing 200-250 g, were purchased from Charles River Laboratory (Wilmington, Mass.) and used for experiments. All animal procedures were approved by the Veterans Affairs Animal Care and Use Committee and were conducted in accordance with additional institutional guidelines as well. Briefly, groups of 5-6 animals were used in each experiment. The rats were anesthetized with 50 mg/kg of sodium pentobarbital (Nembutal, Lundbeck Inc., Deerfield, Ill.). Twenty min after inducing anesthesia, GHRH(1-29)NH2, JI-38, or new analogs were injected into the animals intravenously (i.v.) or subcutaneously (s.c.). The peptides were dissolved in 0.01 M acetic acid to get 1 μg/μl stock solution, and then diluted with 5% mannitol. Control rats received 5% mannitol only. Blood samples were collected from the jugular vein at selected times and were used for serum preparation. Concentrations of GH in rat sera were determined by ELISA. The relative potencies of tested peptides were calculated using GHRH(1-29)NH2 and JI-38 for comparison, whose potency was defined as 1. The equivalent dosage of GHRH(1-29)NH2 to reach the same level of serum growth hormone release after injection of the specific tested peptide was determined from a GHRH(1-29)NH2 standard curve using Origin 6.0 software. […] Serum GH was determined using the rat Growth Hormone ELISA kit (ALPCO Diagnostics, Mill Valley, Calif.) according to the manufacturer's instruction. Absorbance at 405 nm was measured by a Victor 3 Multi-label Counter (Perkin-Elmer, Waltham, Md.).
# GHRH receptor [6] = biological target: T1, GHRH receptor; test: Receptor binding in vitro, 125I-labeled [His1,Nle27]-hGHRH(1-32)NH2, membrane receptors of human anterior pituitary cells (Table 14)
# Description: Normal human pituitary was purchased from the National Hormone and Peptide Program (UCLA Medical Center, Torrance, Calif.).
# GHRH receptor [7] = biological target: T1, GHRH receptor; test: GHRH receptor binding, competition with 125I-labeled JV-1-42, human pituitary membrane homogenates (Table 7); set-up: Normal human pituitaries were purchased from the National Hormone and Peptide Program; tissue National Hormone and Peptide Program (A.F. Parlow, Harbor-UCLA Medical Center, Torrance, Calif.); host or cells: normal human pituitary, membrane fraction; conditions: JI-38 = 1, Table 7
# Description: as §1
smiles,measurement,setting,value
"CCCC[C@H](NC(=O)[C@@H](NC(=O)[C@H](CC(=O)O)NC(=O)[C@H](CCC(N)=O)NC(=O)[C@H](CC(C)C)NC(=O)[C@H](CC(C)C)NC(=O)[C@H](CCCN)NC(=O)[C@H](CCCNC(=N)N)NC(=O)[C@H](C)NC(=O)[C@H](CO)NC(=O)[C@H](CC(C)C)NC(=O)[C@H](CCC(N)=O)NC(=O)[C@H](CC)NC(=O)[C@H](CC(C)C)NC(=O)[C@@H](NC(=O)[C@H](CCCN)NC(=O)[C@H](CCCNC(=N)N)NC(=O)[C@H](Cc1ccc(O)cc1)NC(=O)[C@H](CO)NC(=O)[C@H](C)NC(=O)[C@@H](NC(=O)[C@H](Cc1ccccc1)NC(=O)[C@@H](NC(=O)[C@H](C)NC(=O)[C@H](CC(=O)O)NC(=O)[C@@H](C)NC(=O)CCc1ccc(O)cc1)[C@@H](C)CC)[C@@H](C)O)C(C)C)[C@@H](C)CC)C(=O)N[C@@H](CC(=O)O)C(=O)N[C@@H](CCCNC(=N)N)C(=O)N[C@@H](CCCCNC(=N)N)C(N)=O [Peptide P-23256, [Dat^1, D-Ala^2, Ala^8, Orn^12, Abu^15, Orn^21, Nle^27, Asp^28, Har^30]hGHRH(1-30)NH2] (Desaminotyrosyl-[dA]DAIFTASYR[Orn]VL[Abu]QLSAR[Orn]LLQDI[Nle]DR[hArg]-NH2)",Relative affinity (Binding potency) vs GHRH,GHRH receptor [1],148.0
same,Relative affinity (Binding potency) vs JI-38,GHRH receptor [1],48.7
"CCCC[C@H](NC(=O)[C@@H](NC(=O)[C@H](CC(=O)O)NC(=O)[C@H](CCC(N)=O)NC(=O)[C@H](CC(C)C)NC(=O)[C@H](CC(C)C)NC(=O)[C@H](CCCN)NC(=O)[C@H](CCCNC(=N)N)NC(=O)[C@H](C)NC(=O)[C@H](CO)NC(=O)[C@H](CC(C)C)NC(=O)[C@H](CCC(N)=O)NC(=O)[C@H](CC)NC(=O)[C@H](CC(C)C)NC(=O)[C@@H](NC(=O)[C@H](CCCN)NC(=O)[C@H](CCCNC(=N)N)NC(=O)[C@H](Cc1ccc(O)cc1)NC(=O)[C@H](CO)NC(=O)[C@H](CCC(N)=O)NC(=O)[C@@H](NC(=O)[C@H](Cc1ccccc1)NC(=O)[C@@H](NC(=O)[C@H](C)NC(=O)[C@H](CC(=O)O)NC(=O)[C@@H](C)NC(=O)CCc1ccc(O)cc1)[C@@H](C)CC)[C@@H](C)O)C(C)C)[C@@H](C)CC)C(=O)N[C@@H](CC(=O)O)C(=O)N[C@@H](CCCNC(=N)N)C(=O)NCCCCCCCC(N)=O [Peptide P-21304, [Dat^1, D-Ala^2, Gln^8, Orn^12, Abu^15, Orn^21, Nle^27, Asp^28, Amc^30]hGHRH(1-30)NH2] (Desaminotyrosyl-[dA]DAIFTQSYR[Orn]VL[Abu]QLSAR[Orn]LLQDI[Nle]DR[Aoc]-NH2)",Relative affinity (Binding potency) vs GHRH,GHRH receptor [1],74.0
same,Relative affinity (Binding potency) vs JI-38,GHRH receptor [1],24.4
"CCCC[C@H](NC(=O)[C@@H](NC(=O)[C@H](CC(=O)O)NC(=O)[C@H](CCC(N)=O)NC(=O)[C@H](CC(C)C)NC(=O)[C@H](CC(C)C)NC(=O)[C@H](CCCN)NC(=O)[C@H](CCCNC(=N)N)NC(=O)[C@H](C)NC(=O)[C@H](CO)NC(=O)[C@H](CC(C)C)NC(=O)[C@H](CCC(N)=O)NC(=O)[C@H](CC)NC(=O)[C@H](CC(C)C)NC(=O)[C@@H](NC(=O)[C@H](CCCN)NC(=O)[C@H](CCCNC(=N)N)NC(=O)[C@H](Cc1ccc(O)cc1)NC(=O)[C@H](CO)NC(=O)[C@@H](NC(=O)[C@@H](NC(=O)[C@H](Cc1ccccc1)NC(=O)[C@@H](NC(=O)[C@H](C)NC(=O)[C@H](CC(=O)O)NC(=O)[C@H](C)NC(=O)CCc1ccc(O)cc1)[C@@H](C)CC)[C@@H](C)O)[C@@H](C)O)C(C)C)[C@@H](C)CC)C(=O)N[C@@H](CC(=O)O)C(=O)NCCCCNC(=N)N [JI-36, reference compound] (Desaminotyrosyl-ADAIFTTSYR[Orn]VL[Abu]QLSAR[Orn]LLQDI[Nle]D-Agmatine; N-terminus and C-terminus assumed)",Relative affinity (Binding potency) vs GHRH,GHRH receptor [1],3.25
"CCCC[C@H](NC(=O)[C@@H](NC(=O)[C@H](CC(=O)O)NC(=O)[C@H](CCC(N)=O)NC(=O)[C@H](CC(C)C)NC(=O)[C@H](CC(C)C)NC(=O)[C@H](CCCN)NC(=O)[C@H](CCCNC(=N)N)NC(=O)[C@H](C)NC(=O)[C@H](CO)NC(=O)[C@H](CC(C)C)NC(=O)[C@H](CCC(N)=O)NC(=O)[C@H](CC)NC(=O)[C@H](CC(C)C)NC(=O)[C@@H](NC(=O)[C@H](CCCN)NC(=O)[C@H](CCCNC(=N)N)NC(=O)[C@H](Cc1ccc(O)cc1)NC(=O)[C@H](CO)NC(=O)[C@H](CC(N)=O)NC(=O)[C@@H](NC(=O)[C@H](Cc1ccccc1)NC(=O)[C@@H](NC(=O)[C@H](C)NC(=O)[C@H](CC(=O)O)NC(=O)[C@@H](CC)NC(=O)CCc1ccc(O)cc1)[C@@H](C)CC)[C@@H](C)O)C(C)C)[C@@H](C)CC)C(=O)N[C@@H](CO)C(=O)N[C@@H](CCCNC(=N)N)C(=O)NCCCC(N)=O [Peptide P-25504, [Dat^1, D-Abu^2, Orn^12, Abu^15, Orn^21, Nle^27, Gab^30]hGHRH(1-30)NH2] (Desaminotyrosyl-[dAbu]DAIFTNSYR[Orn]VL[Abu]QLSAR[Orn]LLQDI[Nle]SR[GABA]-NH2)",GH releasing potency in vivo relative to JI-38 (=1),GH release [2]; 5 min after,1.66
same,GH releasing potency in vivo relative to JI-38 (=1),GH release [2]; 15 min after,1.65
same,GH releasing potency in vivo relative to JI-38 (=1),GH release [2]; 30 min after,1.37
same,GH releasing potency relative to JI-38 (=1),GH release [3]; 15 min after,0.78
same,GH releasing potency relative to JI-38 (=1),GH release [3]; 30 min after,0.98
same,"Serum GH level at selected time after injection (ng/ml), 0 min","GH release [4]; male rats, dose 3 μg/kg, 0 min, mean ± SEM",25.4 ± 4.1 ng/mL
same,"Serum GH level at selected time after injection (ng/ml), 15 min","GH release [4]; male rats, dose 3 μg/kg, 15 min, mean ± SEM",200.0 ± 10.7 ng/mL
same,"Serum GH level at selected time after injection (ng/ml), 30 min","GH release [4]; male rats, dose 3 μg/kg, 30 min, mean ± SEM",130.0 ± 19.1 ng/mL
same,"Relative potency compared to GHRH(1-29), 15 min",GH release [4]; 15 min,52.6
same,"Relative potency compared to JI-38, 15 min",GH release [4]; 15 min,0.83
same,"Relative potency compared to GHRH(1-29), 30 min",GH release [4]; 30 min,113.8
same,"Relative potency compared to JI-38, 30 min",GH release [4]; 30 min,1.02
same,"Relative potency, 5 min","GH release [5]; 5 min, JI-38 = 1",1.55
same,"Relative potency, 15 min","GH release [5]; 15 min, JI-38 = 1",1.50
same,"Serum GH level at selected time after injection (ng/ml), 0 min","GH release [5]; dose 1 μg/kg, 0 min, mean ± SEM",25.7 ± 6.3 ng/mL
same,"Serum GH level at selected time after injection (ng/ml), 5 min","GH release [5]; dose 1 μg/kg, 5 min, mean ± SEM",832 ± 214 ng/mL
same,"Serum GH level at selected time after injection (ng/ml), 15 min","GH release [5]; dose 1 μg/kg, 15 min, mean ± SEM",297 ± 45.6 ng/mL
same,Relative affinity (Binding potency) compared to JI-38,GHRH receptor [6]; JI-38 = 1,0.96
same,Relative affinity (Binding potency) compared to hGHRH(1-29),GHRH receptor [6]; hGHRH(1-29)NH2 = 1,2.68
same,Relative affinity (Binding potency) vs JI-38,GHRH receptor [7],3.02
